We go through 1 compound from patent US20250032624A1, “SMALL MOLECULE DEGRADATION METHODS FOR TREATING ALS/FTD” (University of Florida Research Foundation, Incorporated, priority 2021, published 2025).

Each structure is given as a SMILES string.

One assay has as its system d(G4C2)8. Put plainly: Affinity by MST, DNA control d(G4C2)8. Format: binding. Conditions: d(G4C2)8, concentrations up to 20 μM. The procedure:
Affinity measurements were performed by MST using a Monolith NT.115 system (NanoTemper Technologies) with 5′-Cy5-labeled r(G4C2)8 (SEQ ID NO: 1), 5′-Cy5-labeled d(G4C2)8 (SEQ ID NO: 1), and 5′-Cy5-labeled base pair control r(G2C2)4GAAA(G2C2)4 (SEQ ID NO: 49). All oligos were deprotected according to the manufacturer's recommended protocol. Samples were prepared as previously described^30. Briefly, RNA or DNA (5 nM) was folded in 1×MST Buffer (8 mM Na2HPO4, 185 mM NaCl, 1 mM EDTA) by heating at 95° C. for 5 minutes and slowly cooling to room temperature. Tween-20 was then added to a final concentration of 0.05% (v/v). Serial dilutions of compound in 1×MST Buffer containing 5 nM folded nucleic acid were then carried out to yield the desired compound concentrations. Samples were incubated for 90 minutes at room temperature and then loaded into premium capillaries (NanoTemper Technologies). The following parameters were used on the Monolith NT.115 system: 10% LED, 20-80% MST power, Laser-On time=30 s, Laser-Off time=5 seconds. Fluorescence was detected using excitation wavelengths of 605-645 nm and emission wavelengths of 680-685 nm. The resulting data were analyzed by thermophoresis analysis and fit using the quadratic binding equation in the MST analysis software (NanoTemper Technologies). The dissociation constant was determined using Equation 1. […]

Assay [1] concerns transcripts that contain shorter, non-pathogenic r(G4C2) repeats. The assay can be described thus: RT-qPCR of eight transcripts with shorter, non-pathogenic r(G4C2) repeats in C9orf72 iPSCs. Conditions: repeat length 2-4, RT-qPCR. Format: cell-based, human. The method, then: Measuring Levels of C9orf72 and C9orf72 Variants by RT-qPCR. LCLs and iPSCs were seeded in 6-well plates (˜10^6 cells in 2 mL of Basal medium) and incubated overnight at 37° C. with 5% CO2. LCLs were then treated with compound for 4 days without media changes; patient-derived iPSCs were seeded at ˜80% confluency and treated, as described above. Treatment with either a G4C2-ASO or Control-ASO (100 nM) was used as a control. ASO transfection was achieved using Lipofectamine RNAiMax (Life Technologies), following the manufacturer's protocol. After 4 days of treatment (with either compound or ASO), total RNA was extracted using the Quick-RNA Miniprep Kit (Zymo Research). RNA was quantified via Nanodrop and ˜1 μg of total RNA was reverse transcribed using qScript (Quantbio), according to the manufacturer's guidelines. RT-qPCR was performed on a QuantStudio™ Real-Time PCR Instrument (Applied Biosystems) using Power SYBR Green Master Mix (Applied Biosystems). Expression levels of mRNAs were normalized to GAPDH. See Table 2 for a list of primers used.
Background: In qPCR the cycle at which signal appears reflects the starting amount.

Assay [2] relates to C9orf72 and transcriptome. The assay can be described thus: RNA-seq in iPSCs from healthy donors. The assay is classed as cell-based, human. Conditions: healthy donor iPSCs. The method, then: Total RNA integrity was confirmed by Agilent 2100 Bioanalyzer RNA nano chip, and the quantity was measured by Qubit 2.0 Fluorometer (Invitrogen). The library preparation was performed using NEBNext Ultra II Directional RNA kit (NEB, E7760) in combination with NEBNext rRNA depletion module (NEB, E6310) and RNA fragmentation module (NEB, E6150S), following manufacturer's recommendations. Briefly, a total of 200 ng RNA was first processed with depleted of ribosomal RNA, and then randomly fragmented to achieve range between 150 to 300 nucleotides. The fragmented RNAs were random primed for the first-strand synthesis, and the second strand was synthesized with dUTPs. The strand information is thus preserved by using USER enzyme (Uracil-specific excision reagent). The cDNA was PCR amplified and pooled equimolar to load onto the NextSeq 500 v2.5 flow cell and sequenced with 2×40 bp paired-end method. The output fastq files were aligned using STAR 3^5. The read counts of specific regions were extracted using samtools.^36 The global differential gene expression analysis was performed using featureCounts and Deseq2.^37,38

In another assay the test system is C9orf72. The assay can be described thus: C9orf72 transcript RT-qPCR in healthy iPSNs. Format: cell-based, human. The procedure:
Differentiated motor neurons (iPSNs) were derived from the iPSCs listed in the previous section. The differentiation process was based on a previously reported method with slight modifications^33,34. Briefly, iPSCs were plated into Matrigel-coated 100 mm dishes (30-40% confluence). Neuroepithelial induction was performed by replacing the Basal medium with Stage 1 medium [47.5% IMDM (Iscove's Modified Dulbecco's Medium), 47.5% F12 medium, 1% NEAA (Non-Essential Amino Acids) (Life Technologies), 2% B27 (Invitrogen), 1% N2 (Invitrogen), 1% PSA (Penicillin-Streptomycin-Amphotericin), 0.2 μM LDN193189 (Stemgent), 10 μM SB431542 (STEMCELL Technologies) and 3 μM CHIR99021 (Sigma-Aldrich)]. The medium was changed daily for 6 days, after which cells were detached from plates using Accutase (STEMCELL Technologies). Cells were seeded into 6-well plates (1.5×10^6 cells/well) in 3 mL of Stage 2 medium [Stage 1 medium supplemented with 0.1 μM All-trans RA (Sigma-Aldrich) and 1 μM SAG (Cayman Chemicals)]. Cells were maintained in Stage 2 medium, with daily medium changes, through Day 11 of the differentiation process. On Day 12, the Stage 2 cell medium was removed and replaced with Stage 3 medium [47.5% IMDM, 47.5% F12 medium, 1% NEAA, 2% B27, 1% N2, 1% PSA, 0.1 μM Compound E (Millipore; Catalog #: 565790), 2.5 μM DAPT (Sigma-Aldrich), 0.1 μM db-cAMP (Millipore), 0.5 μM All-trans RA, 0.1 μM SAG, 20 ng/mL ascorbic acid, 10 ng/mL BDNF (STEMCELL Technologies), and 10 ng/mL GDNF (STEMCELL Technologies)]. This medium was replaced every three days until the end of the differentiation process. Typically, a minimum of 18 days is required to produce immature differentiated motor neurons; 30 days of differentiation is the standard for producing mature differentiated spinal neurons. The cells can be maintained in medium for an additional 14-28 days after reaching maturation. […]
For iPSNs cells were differentiated, following the protocol outlined above, until Day 15. […] RNA was extracted as described above and the expression levels of C9orf72 variants was determined by RT-qPCR and normalized to GAPDH. […]

`CCOC(=O)C1=C(Nc2ccccc2)S/C(=C\c2ccc(OCCOCCOCCOCCNC(=O)CCCOc3ccc4c(c3)c3cc5c(C(=O)N[C@H](C)CN(C)C)nccc5c(C)c3n4C)c(O)c2)C1=O` [ALS Compound Formula I]: in the assay on d(G4C2)8, the saturable binding result is given as “No saturable binding”. In addition, the “short r(G4C2) repeat-containing transcripts significantly reduced (of eight)” value in assay [1] was “only one transcript, SOCS1, was significantly reduced”. Also, in assay [2], the C9orf72 read count result was “no effect”, the “intron 1:exon 2 ratio” value is given as “no effect” and the off-target effects transcriptome-wide result is “minimal off-target effects”. In the assay with C9orf72, the “effect on exon 2-3 levels” value is “No effect”, the “effect on intron 1b levels” value is on record as “No effect” and the “effect on intron 1 levels” value was “No effect”.
